The results in this text go back to article PMC7215935, “GM1 Oligosaccharide Crosses the Human Blood–Brain Barrier In Vitro by a Paracellular Route” (International Journal of Molecular Sciences, 2020).

Usually Papp B→A stands for the apparent permeability from the basolateral to the apical side of a cell layer.

Data set [1] in a line: Direct transport (apical to basolateral, A → B) across the hBLEC monolayer: Pe and Papp. The data set is classed as in vitro ADME, human. Particulars: human, pH 7.4, 50 μM. As to the method:
(§1) Prior to the experiments, in order to verify the hBLECs’ monolayer integrity and stability, the permeability parameters were verified as previously reported. Briefly, 1.5 mL Ringer–Hepes solution (RH) (150 mM NaCl, 5.2 mM KCl, 2.2 mM CaCl2, 0.2 mM MgCl26H2O, 6 mM NaHCO3, 5 mM HEPES, pH: 7.4) was added to empty wells of a 12-well plate. Filter insert containing confluent monolayers of hBLECs or not (control) were subsequently placed in the 12-well plate, filled with 0.5 mL RH buffer containing the fluorescent integrity marker LY (50 μM), and then placed on an orbital shaker (150 rpm, Heidolph Titramax 100) at 37 °C in a humidify atmosphere of 95% air/5% CO2. Every 20 min for 1 h, filter inserts were withdrawn from the receiver compartment and placed in the next one. To verify the quantity of LY, at the end of the experiments, aliquots from the donor solution were taken at the end of the experiments and the fluorescence was quantified using a quantification curve of LY as referee. At least three inserts with cells and three without cells were tested in each permeability measurement. The fluorescence was measured using a luminescence spectrometer (LS 50B, Perkin Elmer), using the following excitation/emission wavelength (nm) settings: 432/538. Pe parameters were calculated according to the formulas shown in the Supplementary Information (Equations (7)–(10)). In parallel, as positive control for breakdown of hBLECs, D-mannitol, was used at a concentration of 1.4 M. At this concentration, mannitol induces an osmotic shock, and thus an increase in paracellular permeability.
(§2) Transport experiments were carried out by adding tritium-labeled GM1 or OligoGM1 (1 × 10^6 dpm) to cold GM1 or OligoGM1, respectively, at different concentrations, as specified below.
(§3) To identify and quantify the GM1 or OligoGM1 molecules in every transport experiment, aliquots from apical A (5 μL) and basolateral B (200 μL) compartments were collected at indicated time points and combined with 5 mL of ULTIMA GOLD liquid (PerkinElmer), shaken, and counted for 20 min by liquid scintillation analyzer (TRI-CARB 2100TR, Packard). Resulting radioactivity measures were used to estimate the quantity of the molecules. Experiments were performed on an agitation plate at 37 °C (150 rpm, Heidolph Titramax 100) in a humidify atmosphere of 95% air/5% CO2. At least three inserts with cells were tested in each transport experiment for each condition.
(§4) To examine flux from apical to basolateral compartments (A → B), 1.5 mL RH buffer was added to empty wells of a 12-well plate. Following this, the hBLEC filter was placed in the same 12-well plate and filled with 0.5 mL RH buffer containing 1 × 10^6 dpm of tritiated [^3H]GM1 or [^3H]OligoGM1 plus 50 μM of cold GM1 or OligoGM1 (Figure S3b).
(§5) To establish the time dependence of the transport experiments, hBLEC inserts filled with OligoGM1 were transferred into a new receiver well plate filled with fresh RH buffer every 20 min up to 240 min. The hBLECs’ properties, integrity, and stability were maintained up to 240 min in the transport experiments with RH buffer in the upper and basolateral side (see [28] and Figure S4).
(§6) To establish the dose dependence in the transport experiments, 1 × 10^6 dpm of tritiated [^3H]OligoGM1 plus 5, 10, 50, 100, and 300 μM OligoGM1 solutions were prepared and employed as described above. The hBLECs inserts were transferred into a new RH-filled receiver well plate every 20 min up to 60 min. […]
(§7) To evaluate the possible active transport involvement, the transport of OligoGM1 from apical to basolateral (A → B) compartments was performed at 4 °C, with the aim of inhibiting the active transport mechanism at low temperature. […]

The subject of data set [2] is human brain-like endothelial cells (hBLECs). The data set is described as above. The class given is in vitro ADME. As to the method:
as §1, §2, §3, §4, §5, §6, §7

Data set [3] in a line: Inverse transport (basolateral to apical, B → A) across hBLECs and efflux ratio. The class given is in vitro ADME, human. As to conditions: human, pH 7.4; 50 μM in basolateral compartment, 60 min (Figure 7). On the procedure: For the inverse transport study (related to basolateral → apical flux, B → A), 1.5 mL of 1 × 10^6 dpm of tritiated [^3H]OligoGM1 plus 50 μM OligoGM1 in RH buffer were added to an empty well of a 12-well plate (Figure S3c). Every 20 min up to 60 min, the hBLEC filter filled with 0.5 mL RH buffer was removed and replaced with a new filter with fresh RH buffer.
The apparent permeability, efflux ratio, and endothelial permeability were calculated to estimate the absorption processes of drugs, to predict implication of active transport in the process of drugs absorption, and to more accurately appreciate the transport of a drug across an endothelial barrier, respectively. Detailed information on the equations used to calculate the permeability parameters are reported in the Supplementary Information. […]
where (∆Q/∆t) (μmol/sec) is the rate of permeation (quantity per second) of a molecule across the cell layer, C0 (μmol/cm3) is the donor compartment concentration at time zero and S (cm2) is the area of […]
In the transwell insert system there are two compartments and, analyzing the absorption of a substance, the apparent permeability index can be obtained for the apical to basolateral transport, Papp A → B, and for the inverse, basolateral to apical transport Papp B → A.
To define Papp (1), the Fick's law could be used, which describes the transport of substances through a semipermeable membrane. Given that the initial concentration of the solute in the donor compartment is much higher than the one in the receiver compartment (equal to 0 at t0), and assuming that the solute equally partitions in the two compartments, for small variation of C0, it is possible to integrate and simplify the Fick’s equation to obtain as follows: […]
where ∆Q/∆t corresponds to the amount of solute that crosses the membrane over time, D is the diffusion coefficient of the substance in water, S is the membrane surface, h its thickness and C0 is the concentration of the solute which approximates the initial concentration C0.
The equation (2) can be rewritten as: […]

Like-named read-outs stand apart in the source and are kept apart here.

Turning to `CC(=O)NC1C(O)CC(OC2C(O)C(OC3C(CO)OC(O)C(O)C3O)OC(CO)C2OC2OC(CO)C(O)C(OC3OC(CO)C(O)C(O)C3O)C2NC(C)=O)(C(=O)O)OC1C(O)C(O)CO` (stereo not drawn) [OligoGM1, β-Gal-(1-3)-β-GalNAc-(1-4)-[α-Neu5Ac-(2-3)]-β-Gal-(1-4)-β-Glc], the Papp A→B at 60 min, 50 μM in data set [1] (60 min, 4 °C (Figure 6d), read-out: Papp A>B at 4 °C) is 67 ± 1.7 nm/s; in data set [1] (60 min, 37 °C, temperature experiment (Figure 6d), read-out: Papp A>B at 37 °C), 88 ± 2.4 nm/s; in data set [1] (after 60 min, hBLEC monolayer, read-out: endothelial permeability Pe (A → B) (converted)), 96.7 nm/s. The “influence of BSA on rate of A → B transport” value in data set [2] (50 μM, 0.1% (w/v) BSA in apical solution, 60 min) was “No difference in the rate of transport”. Further, the “slope of linear regression: % of administered nmol in receiving compartment vs time (min)” value in data set [2] (50 μM, 20-240 min, y = slope × x) is 0.1097. Further, the “crossing rate / Pe of OligoGM1 relative to GM1” value in data set [2] (50 μM, hBLECs) was determined as 20 fold. Further, in data set [2] (50 μM, up to 240 min), the “time dependence of A → B transport” value was “linear time dependence”. In data set [2] (5-300 μM, 60 min, y = slope × x), the “slope of linear regression: nmol in receiving compartment vs concentration (μM)” value came out at 0.04352. For the same compound, the “concentration dependence of A → B transport” value in data set [2] (5 to 300 μM, 60 min) is on record as “proportional increase”. The basolateral-to-apical permeability (Papp B→A) at 60 min, 50 μM in data set [3] amounted to 87 ± 14 nm/s.
